Test results from US12528805B2, “Solid forms of emetine” (Acer Therapeutics, Inc., priority 2020, dated 2026).
Structures can show the parent of a compound that is named as a salt.

Experiment: Solubility screening by solvent addition technique (approximate solubility)
Type: physicochemical
Settings: thermodynamic from solid, stirred at 50° C.
Method: Approximate solubility values for amorphous Compound I dihydrochloride in 24 solvent systems was estimated by a solvent addition technique (Table 5).
The following procedure was used for the study: • Approximately 20 mg of material was weighed out into 24×2 mL push-cap vials. • Each solvent/solvent mixture was added to the appropriate vial in 5 volume aliquots (100 μL) until either no more solvent could be added or until the material dissolved. • In between additions, the experiments were stirred at 50° C. • If 2000 μL of solvent was added without dissolution of the material, solubility was calculated to be below this point. • Experiments were stirred at 50° C. for 1.5-5 h and then cooled at 0.1° C./min to 5° C. and stirred at 5° C. for about 10 h. • Solids (residual and recrystallized) were isolated by centrifugation (0.22 μm nylon filter) and analyzed by XRPD. • Anti-solvent addition (ASA) at 20° C. was carried out on solutions, followed by temperature cycling between 50° C.-5° C. (1 h hold, 0.1° C./min cool, 0.25° C./min ramp) for 20 h. • ASA at 5° C. was carried out on experiments which remained solutions, which were then stirred at 5° C. for 3 h. • Solids were isolated by centrifugation (0.22 μm nylon filter) and analyzed by XRPD; experiments which remained solutions were evaporated at ambient temperature (about 20° C.) under vacuum. • All isolated material was dried under vacuum at about 30° C. for about 19-23 h then re-analyzed by XRPD.
For comparison purposes, the approximate solubility of Compound I dihydrochloride Form 1 was estimated in water, using the same procedure, in solubility screening Experiment 25.

SMILES: CC[C@H]1CN2CCc3cc(OC)c(OC)cc3[C@@H]2C[C@@H]1C[C@H]1NCCc2cc(OC)c(OC)cc21 [Amorphous Compound I dihydrochloride]
- solubility (aqueous with cosolvent or surfactant or cyclodextrin, acetone:water 50:50 v/v): > 200 mg/mL
- solubility (aqueous with cosolvent or surfactant or cyclodextrin, ethanol:water 25:75 v/v): > 200 mg/mL
- solubility (aqueous with cosolvent or surfactant or cyclodextrin, methanol:water 50:50 v/v): > 200 mg/mL
- solubility (organic solvent or mixture, 1-propanol): > 200 mg/mL
- solubility (organic solvent or mixture, 2-methyl THF): < 10 mg/mL
- solubility (organic solvent or mixture, 2-propanol): > 200 mg/mL
- solubility (organic solvent or mixture, 2-propanol:water 95:5 v/v): > 200 mg/mL
- solubility (organic solvent or mixture, N-methyl-2-pyrrolidone): > 200 mg/mL
- solubility (organic solvent or mixture, THF): < 10 mg/mL
- solubility (organic solvent or mixture, acetone): < 10 mg/mL
- solubility (organic solvent or mixture, anisole): < 10 mg/mL
- solubility (organic solvent or mixture, dimethylformamide): > 200 mg/mL
- solubility (organic solvent or mixture, dimethylsulfoxide): > 200 mg/mL
- solubility (organic solvent or mixture, ethanol): > 200 mg/mL
- solubility (organic solvent or mixture, ethanol:water 90:10 v/v): > 200 mg/mL
- solubility (organic solvent or mixture, ethyl acetate): < 10 mg/mL
- solubility (organic solvent or mixture, heptane): < 10 mg/mL
- solubility (organic solvent or mixture, isopropyl acetate): < 10 mg/mL
- solubility (organic solvent or mixture, methanol): > 200 mg/mL
- solubility (organic solvent or mixture, methylethyl ketone): < 10 mg/mL
- solubility (organic solvent or mixture, methylisobutyl ketone): < 10 mg/mL
- solubility (organic solvent or mixture, tBME): < 10 mg/mL
- solubility (organic solvent or mixture, toluene): < 10 mg/mL
- solubility (water): > 200 mg/mL
